For 16 compounds, TGI and GI50 results are on record in PubChem BioAssay (NCI).

Molecules are shown by their SMILES. Values joined by “and” are separate entries in the source; they are usually repeats but may differ in a detail not shown here. Identical values can stand only once.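 Method: 48-hour compound exposure of cells in 96-well plates, five concentrations, linear interpolation of endpoints. GI50 = concentration required for 50% inhibition of growth. TGI marks complete inhibition of growth.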

The test system of one assay is UO-31 renal. Description: DTP human tumour cell line panel, 48 h.
As for `COc1ccc(CC2c3cc4c(cc3CCN2C)OCO4)c(C=O)c1OC` (centres undefined), the total growth inhibition concentration (TGI) was above 100 µM.
For `COc1cc(/C=N\NC(=O)CN2CCN(c3cc4c(cc3F)c(=O)c(C(=O)N/N=C/c3cc(OC)c(OC)c(OC)c3)cn4C3CC3)CC2)cc(OC)c1OC`, the GI50 is above 100 µM and the TGI is above 100 µM.
In the case of `C=CC(=O)Nc1cc(Nc2ncc(C(=O)OC(C)C)c(-c3cn(C)c4ccccc34)n2)c(OC)cc1N(C)CCN(C)C`, the GI50 is 0.442 µM and the TGI amounted to 12.9 µM.
Turning to `Cc1nc2sccn2c1-c1csc(Nc2ccccc2Cl)n1`, the GI50 is 3.21 µM and the TGI stood at 33.6 µM.
On to `CN(C)c1ccc(/C=C\C2=[N+](C)c3ccccc3C2(C)C)cc1`, for which the GI50 was 3.74 µM and the TGI is above 100 µM.
On the same counts, the results for `Nc1nc(-n2c(-c3ccccc3)nc3c(Br)cc(Br)cc3c2=O)nnc1-c1cccc(Cl)c1Cl` are 40.2 µM and above 100 µM.
Taken in the same sequence, the figures for `Cn1cc(C2=C(c3c4n(c5ccccc35)CCCCC4)C(=O)NC2=O)c2ccccc21` were 5.75 µM and above 25 µM.
Taken in the same sequence, the figures for `Cc1ccnc2c1ccc1c(C)ccnc12` were 0.246 µM and 2.91 µM.

For the next assay, the system named is OVCAR-3 ovarian. Description: DTP human tumour cell line panel, 48 h.
As to `NC(N)=NS(=O)(=O)c1ccc(Nc2c3ccccc3nc3c(C(=O)NCCO)cccc23)cc1`, the GI50 is 17100 nM.
With `C=CCO[C@H]1CO[C@H]2[C@@H]1OC[C@@H]2Oc1ccc(Nc2ccnc(Nc3ccc(O[C@H]4CO[C@H]5[C@@H]4OC[C@@H]5OCC=C)c(Cl)c3)n2)cc1Cl`, the GI50 was 1810 nM and the TGI amounted to 3.25 µM.
Taken in the same sequence, the figures for `COc1ccc2c(c1)sc1nc(-c3ccccc3)c(-c3cccc4ccccc34)n12` were 350 nM and 1.46 µM.
Compound `C[N+](C)(C)CC(=O)N/N=C(/CC(=O)CC(C1=C(O)c2ccccc2OC1)c1ccccc1)C(=O)Nc1cccc(Cl)c1` (centres undefined) showed a TGI above 100 µM.
In turn, `CCN(CC)N=Nc1c(C(N)=O)n[nH]c1C` came in with a TGI above 100 µM.
Take `OCCN(CCO)c1ncnc2c1ncn2Cc1ccc(CCl)cc1`: the GI50 is 19400 nM and the TGI came out at 34.9 µM.
As for `O=C(Nc1ccccc1)c1c(O)[nH]c(=S)[nH]c1=O`, the GI50 is 10900 nM; the TGI is 74.8 µM and 71.3 µM.
With `Cc1cc(-c2nc(C(=O)Nc3cc4oc(N5CCOCC5)nc4nc3N3CC[C@@H](O)C3)co2)ccn1`, the GI50 was 27000 nM and the TGI is above 100 µM.
In turn, `COc1ccc(CC2c3cc4c(cc3CCN2C)OCO4)c(C=O)c1OC` (centres undefined) gave a TGI above 100 µM.
For `COc1cc(/C=N\NC(=O)CN2CCN(c3cc4c(cc3F)c(=O)c(C(=O)N/N=C/c3cc(OC)c(OC)c(OC)c3)cn4C3CC3)CC2)cc(OC)c1OC`, the GI50 was 214 nM and the total growth inhibition concentration (TGI) came to 0.458 µM.
As for `C=CC(=O)Nc1cc(Nc2ncc(C(=O)OC(C)C)c(-c3cn(C)c4ccccc34)n2)c(OC)cc1N(C)CCN(C)C`, the GI50 was 2580 nM and the concentration for total growth inhibition (TGI) stood at 12.3 µM.
On to `Cc1nc2sccn2c1-c1csc(Nc2ccccc2Cl)n1`, for which the GI50 is 3180 nM and the TGI was 19.1 µM.
Taken in the same sequence, the figures for `CN(C)c1ccc(/C=C\C2=[N+](C)c3ccccc3C2(C)C)cc1` were 342 nM and 4.38 µM.
Taken in the same sequence, the figures for `Nc1nc(-n2c(-c3ccccc3)nc3c(Br)cc(Br)cc3c2=O)nnc1-c1cccc(Cl)c1Cl` were 6840 nM and 53.6 µM.
On the same counts, the results for `Cn1cc(C2=C(c3c4n(c5ccccc35)CCCCC4)C(=O)NC2=O)c2ccccc21` are 1210 nM and 8.05 µM.
As to `Cc1ccnc2c1ccc1c(C)ccnc12`, the GI50 is 526 nM and the total growth inhibition concentration (TGI) was found to be 11.4 µM.

The test system of the next assay is SF-268 CNS. Description: DTP human tumour cell line panel, 48 h.
Regarding `NC(N)=NS(=O)(=O)c1ccc(Nc2c3ccccc3nc3c(C(=O)NCCO)cccc23)cc1`, the GI50 is 16.3 µM.
In the case of `C=CCO[C@H]1CO[C@H]2[C@@H]1OC[C@@H]2Oc1ccc(Nc2ccnc(Nc3ccc(O[C@H]4CO[C@H]5[C@@H]4OC[C@@H]5OCC=C)c(Cl)c3)n2)cc1Cl`, the GI50 was 1.98 µM and the TGI turned out to be 3.76 µM.
As to `COc1ccc2c(c1)sc1nc(-c3ccccc3)c(-c3cccc4ccccc34)n12`, the GI50 is 0.878 µM and the concentration for total growth inhibition (TGI) was above 100 µM.
`C[N+](C)(C)CC(=O)N/N=C(/CC(=O)CC(C1=C(O)c2ccccc2OC1)c1ccccc1)C(=O)Nc1cccc(Cl)c1` (centres undefined) gave a TGI above 100 µM.
Still for that read-out and setting: next, `CCN(CC)N=Nc1c(C(N)=O)n[nH]c1C`: above 100 µM.
`OCCN(CCO)c1ncnc2c1ncn2Cc1ccc(CCl)cc1`: the GI50 was 19.8 µM and the TGI is 49.8 µM.
For `O=C(Nc1ccccc1)c1c(O)[nH]c(=S)[nH]c1=O`, the TGI turned out to be 125 µM.
Take `Cc1cc(-c2nc(C(=O)Nc3cc4oc(N5CCOCC5)nc4nc3N3CC[C@@H](O)C3)co2)ccn1`: the GI50 is 61.7 µM and the TGI is above 100 µM.
For `COc1ccc(CC2c3cc4c(cc3CCN2C)OCO4)c(C=O)c1OC` (centres undefined), the TGI is above 100 µM.
Consider `COc1cc(/C=N\NC(=O)CN2CCN(c3cc4c(cc3F)c(=O)c(C(=O)N/N=C/c3cc(OC)c(OC)c(OC)c3)cn4C3CC3)CC2)cc(OC)c1OC`, for which the GI50 was 0.292 µM.
Take `C=CC(=O)Nc1cc(Nc2ncc(C(=O)OC(C)C)c(-c3cn(C)c4ccccc34)n2)c(OC)cc1N(C)CCN(C)C`: the GI50 is 6.88 µM and the TGI stood at 24.1 µM.
Taken in the same sequence, the figures for `Cc1nc2sccn2c1-c1csc(Nc2ccccc2Cl)n1` were 8.33 µM and 86.5 µM.
For `CN(C)c1ccc(/C=C\C2=[N+](C)c3ccccc3C2(C)C)cc1`, the GI50 is 0.654 µM and the TGI was 34 µM.
On the same counts, the results for `Nc1nc(-n2c(-c3ccccc3)nc3c(Br)cc(Br)cc3c2=O)nnc1-c1cccc(Cl)c1Cl` are 20.3 µM and above 100 µM.
For `Cn1cc(C2=C(c3c4n(c5ccccc35)CCCCC4)C(=O)NC2=O)c2ccccc21`, the GI50 is 4.9 µM and the TGI was above 25 µM.
On the same counts, the results for `Cc1ccnc2c1ccc1c(C)ccnc12` are 0.454 µM and 14.6 µM.
